Results on 1 compound are retold here after patent US20250346512A1, “WATER TREATMENT METHOD, WATER TREATMENT APPARATUS, SLIME INHIBITOR, AND CLEANING METHOD” (ORGANO CORPORATION, priority 2022, published 2025).

This experiment has as its system viable bacteria. Nature of the experiment: Contact of slime inhibitor with water containing viable bacteria. Type of experiment: cell-based. The source says:
The slime inhibitor was brought into contact with water containing viable bacteria, and the number of viable bacteria before the contact with the slime inhibitor and the number of viable bacteria after contact with the slime inhibitor for one hour were examined.

As for `OCl` [Sodium hypochlorite, sodium hypochlorite], the “Number of viable bacteria before contact with slime inhibitor” value (baseline before contact) is listed as 10^6. Besides, under “slime inhibitor 0.1 mg/L as Cl2, contact one hour”, the “Number of viable bacteria after contact with slime inhibitor for one hour” value is on record as 10^5.
